Measured values reported in US11491120B2, “Pharmacological prophylactics against stress-induced affective disorders in females” (The Trustees of Columbia University in the City of New York, priority 2017, dated 2022).
“Also recorded” adds a separate entry of the source.

Assays:
[1] = tested on: female 129S6/SvEv mice; experiment: Elevated plus maze (EPM); format: in vivo, mouse; details: 0.025 mg/kg, 1 week prophylactic drug, learned helplessness stress
Method: The EPM was administered as previously described (58), with the exception that videos were scored using ANY-maze behavioral tracking software (Stoelting Co., Wood Dale, Ill.).
We have previously shown that prophylactic (R,S)-ketamine attenuates helpless behavior in male mice (18). To validate these findings in females, female mice were administered saline, (R,S)-ketamine, or (2R,6R)-HNK one week prior to LH training (FIG. 4A). Two weeks later, mice were tested for escape latency and for depressive- and anxiety-like behaviors in the FST and elevated plus maze (EPM). CFC was again administered following these behavioral assays.

[2] = tested on: male mice; experiment: Prophylactic efficacy in male mice (immobility in the forced swim test); format: in vivo, mouse
[3] = tested on: female 129S6/SvEv mice; experiment: Forced swim test (FST), immobility time, after stress
[4] = 0.025 mg/kg, 1 week prophylactic drug
[5] = 0.025 mg/kg, 1 week prophylactic drug, learned helplessness stress
[6] = 0.025 mg/kg, 3 day prophylactic drug
[7] = 0.075 mg/kg, 1 week prophylactic drug
[8] = 0.1 mg/kg, 1 week prophylactic drug
[9] = 0.3 mg/kg, 1 week prophylactic drug
[10] = 2.5 mg/kg, 1 week prophylactic drug
[11] = 10 mg/kg, 1 week prophylactic drug
[12] = Forced Swim Test Day 1, Dunnett test Sal vs. drug (0.025), 1 week prophylactic drug
[13] = Forced Swim Test Day 1, Dunnett test Sal vs. drug (0.075), 1 week prophylactic drug
[14] = Forced Swim Test Day 1, Dunnett test Sal vs. drug (0.1), 1 week prophylactic drug

## N[C@@]1(c2ccccc2Cl)CCC[C@@H](O)C1=O [(2R,6R)-HNK, (2R,6R)-hydroxynorketamine]
[1]
  P, Sal vs. drug, Fisher's PLSD: Time in Closed Arms Average (min 1-6), Elevated Plus Maze: 0.3285
  P, Sal vs. drug, Fisher's PLSD: Time in Open Arms Average (min 1-6), Elevated Plus Maze: 0.9855
[2]
  Prophylactically effective dose in males: 0.075 mg/kg
[3]; [4]
  * (significance), Sal vs. drug, Dunnett test: Immobility Time (min 1-6), Forced Swim Test Day 2: *** (*** p<0.0001)
  * (significance), Sal vs. drug, Dunnett test: Immobility Time (min 4), Forced Swim Test Day 2: * (* p<0.05)
  * (significance), Sal vs. drug, Dunnett test: Immobility Time (min 5), Forced Swim Test Day 2: * (* p<0.05)
  * (significance), Sal vs. drug, Dunnett test: Immobility Time Average (min 3-6), Forced Swim Test Day 2: * (* p<0.05)
  p, Sal vs. drug, Dunnett test: Immobility Time (min 1), Forced Swim Test Day 2: 0.0833
  p, Sal vs. drug, Dunnett test: Immobility Time (min 1-6), Forced Swim Test Day 2: 0.0001
  p, Sal vs. drug, Dunnett test: Immobility Time (min 2), Forced Swim Test Day 2: 0.5867
  p, Sal vs. drug, Dunnett test: Immobility Time (min 4), Forced Swim Test Day 2: 0.0383
  p, Sal vs. drug, Dunnett test: Immobility Time (min 5), Forced Swim Test Day 2: 0.0346
  p, Sal vs. drug, Dunnett test: Immobility Time (min 6), Forced Swim Test Day 2: 0.2356
  p, Sal vs. drug, Dunnett test: Immobility Time Average (min 3-6), Forced Swim Test Day 2: 0.0229
[3]; [5]
  * (significance), Sal vs. drug, Fisher's PLSD: Immobility Time Average (min 3-6), Forced Swim Test Day 2: *** (*** p<0.0001)
  P, Sal vs. drug, Fisher's PLSD: Immobility Time Average (min 3-6), Forced Swim Test Day 2: <0.0001
[3]; 0.025 mg/kg, 24 hour prophylactic drug
  p, Sal vs. drug, t-test: Immobility Time Average (min 3-6), Forced Swim Test Day 2: 0.1367
[3]; 0.025 mg/kg, 24 hours before CFC, female mice
  Immobility on FST Day 2 vs saline: not prophylactically effective when administered 24 h before a stressor; also recorded: did not alter immobility in the FST
[3]; [6]
  * (significance), Sal vs. drug, Fisher's PLSD: Immobility Time (min 1-6), Forced Swim Test Day 2: *** (*** p<0.0001)
  * (significance), Sal vs. drug, Fisher's PLSD: Immobility Time Average (min 3-6), Forced Swim Test Day 2: ** (** p<0.01)
  p, Sal vs. drug, Fisher's PLSD: Immobility Time (min 1-6), Forced Swim Test Day 2: <0.0001
  p, Sal vs. drug, Fisher's PLSD: Immobility Time Average (min 3-6), Forced Swim Test Day 2: 0.0046
[3]; [7]
  p, Sal vs. drug, Dunnett test: Immobility Time (min 1), Forced Swim Test Day 2: 0.4238
  p, Sal vs. drug, Dunnett test: Immobility Time (min 1-6), Forced Swim Test Day 2: 0.5537
  p, Sal vs. drug, Dunnett test: Immobility Time (min 2), Forced Swim Test Day 2: 0.9312
  p, Sal vs. drug, Dunnett test: Immobility Time (min 4), Forced Swim Test Day 2: 0.9993
  p, Sal vs. drug, Dunnett test: Immobility Time (min 5), Forced Swim Test Day 2: >0.9999
  p, Sal vs. drug, Dunnett test: Immobility Time (min 6), Forced Swim Test Day 2: 0.9760
  p, Sal vs. drug, Dunnett test: Immobility Time Average (min 3-6), Forced Swim Test Day 2: 0.8615
[3]; [8]
  p, Sal vs. drug, Dunnett test: Immobility Time (min 1), Forced Swim Test Day 2: 0.9995
  p, Sal vs. drug, Dunnett test: Immobility Time (min 1-6), Forced Swim Test Day 2: 0.9871
  p, Sal vs. drug, Dunnett test: Immobility Time (min 2), Forced Swim Test Day 2: 0.2508
  p, Sal vs. drug, Dunnett test: Immobility Time (min 4), Forced Swim Test Day 2: 0.9994
  p, Sal vs. drug, Dunnett test: Immobility Time (min 5), Forced Swim Test Day 2: 0.8037
  p, Sal vs. drug, Dunnett test: Immobility Time (min 6), Forced Swim Test Day 2: 0.8172
  p, Sal vs. drug, Dunnett test: Immobility Time Average (min 3-6), Forced Swim Test Day 2: 0.9994
[3]; [9]
  p, Sal vs. drug, Dunnett test: Immobility Time (min 1), Forced Swim Test Day 2: 0.9998
  p, Sal vs. drug, Dunnett test: Immobility Time (min 1-6), Forced Swim Test Day 2: 0.9996
  p, Sal vs. drug, Dunnett test: Immobility Time (min 2), Forced Swim Test Day 2: 0.9999
  p, Sal vs. drug, Dunnett test: Immobility Time (min 4), Forced Swim Test Day 2: 0.9883
  p, Sal vs. drug, Dunnett test: Immobility Time (min 5), Forced Swim Test Day 2: 0.9991
  p, Sal vs. drug, Dunnett test: Immobility Time (min 6), Forced Swim Test Day 2: 0.9991
  p, Sal vs. drug, Dunnett test: Immobility Time Average (min 3-6), Forced Swim Test Day 2: 0.9994
[3]; [10]
  p, Sal vs. drug, Dunnett test: Immobility Time (min 1), Forced Swim Test Day 2: 0.4807
  p, Sal vs. drug, Dunnett test: Immobility Time (min 1-6), Forced Swim Test Day 2: 0.6589
  p, Sal vs. drug, Dunnett test: Immobility Time (min 2), Forced Swim Test Day 2: 0.9193
  p, Sal vs. drug, Dunnett test: Immobility Time (min 4), Forced Swim Test Day 2: 0.9991
  p, Sal vs. drug, Dunnett test: Immobility Time (min 5), Forced Swim Test Day 2: >0.9999
  p, Sal vs. drug, Dunnett test: Immobility Time (min 6), Forced Swim Test Day 2: 0.9995
  p, Sal vs. drug, Dunnett test: Immobility Time Average (min 3-6), Forced Swim Test Day 2: 0.9507
[3]; [11]
  p, Sal vs. drug, Dunnett test: Immobility Time (min 1), Forced Swim Test Day 2: 0.9997
  p, Sal vs. drug, Dunnett test: Immobility Time (min 1-6), Forced Swim Test Day 2: 0.9950
  p, Sal vs. drug, Dunnett test: Immobility Time (min 2), Forced Swim Test Day 2: 0.9993
  p, Sal vs. drug, Dunnett test: Immobility Time (min 4), Forced Swim Test Day 2: 0.9955
  p, Sal vs. drug, Dunnett test: Immobility Time (min 5), Forced Swim Test Day 2: 0.9991
  p, Sal vs. drug, Dunnett test: Immobility Time (min 6), Forced Swim Test Day 2: 0.9999
  p, Sal vs. drug, Dunnett test: Immobility Time Average (min 3-6), Forced Swim Test Day 2: 0.9997
[3]; [12]
  * (significance), Immobility Time (min 1-6): ** (** p<0.01)
  p, Immobility Time (min 1): 0.9996
  p, Immobility Time (min 1-6): 0.0090
  p, Immobility Time (min 3): 0.9637
  p, Immobility Time (min 4): 0.8106
  p, Immobility Time (min 5): 0.8892
  p, Immobility Time (min 6): 0.6406
  p, Immobility Time Average (min 3-6): 0.7004
[3]; [13]
  * (significance), Immobility Time (min 1): ** (** p<0.01)
  p, Immobility Time (min 1): 0.0017
  p, Immobility Time (min 1-6): 0.2188
  p, Immobility Time (min 3): 0.9250
  p, Immobility Time (min 4): 0.9750
  p, Immobility Time (min 5): 0.8877
  p, Immobility Time (min 6): 0.9994
  p, Immobility Time Average (min 3-6): 0.9526
[3]; [14]
  p, Immobility Time (min 1): 0.9996
  p, Immobility Time (min 1-6): 0.0673
  p, Immobility Time (min 3): 0.4888
  p, Immobility Time (min 4): 0.3257
